Patent US5166214A, “Use of imidazoles for the treatment of atherosclerosis” (priority 1990, dated 1992)
Where two headings read alike, the source gives them in different places.

Columns and labels:
[1] = molecular target: T1, Acyl-CoA: Cholesterol Acyltransferase (ACAT) (Rattus norvegicus, UniProt Q7TQM4); assay: Inhibition of acyl-CoA: cholesterol acyltransferase (ACAT) in hepatic microsomes (in vitro); format: biochemical, rat (male Sprague Dawley)
T1 construct: Microsomes were obtained by differential centrifugation; from tissue; host or cells: liver microsomes of male Sprague Dawley rats
T1 sequence (Q7TQM4 1-524): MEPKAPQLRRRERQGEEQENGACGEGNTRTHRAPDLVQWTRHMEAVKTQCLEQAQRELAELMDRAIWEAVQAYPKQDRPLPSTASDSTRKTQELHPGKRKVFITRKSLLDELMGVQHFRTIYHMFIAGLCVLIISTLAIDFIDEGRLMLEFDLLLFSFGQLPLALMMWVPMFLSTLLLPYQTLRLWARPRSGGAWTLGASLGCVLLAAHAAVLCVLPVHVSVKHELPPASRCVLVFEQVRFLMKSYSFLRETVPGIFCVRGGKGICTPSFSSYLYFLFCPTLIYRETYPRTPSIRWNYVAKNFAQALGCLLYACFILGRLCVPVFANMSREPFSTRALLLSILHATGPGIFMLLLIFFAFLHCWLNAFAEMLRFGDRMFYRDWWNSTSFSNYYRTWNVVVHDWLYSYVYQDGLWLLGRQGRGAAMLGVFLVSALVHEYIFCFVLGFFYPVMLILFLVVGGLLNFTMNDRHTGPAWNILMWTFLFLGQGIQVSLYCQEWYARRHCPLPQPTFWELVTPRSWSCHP
Protocol: A. Assay of the Inhibition of Acyl-CoA: Cholesterol Acyltransferase (ACAT) in Hepatic Microsomes
The ability of the compounds to inhibit ACAT, the enzyme responsible for the intracellular synthesis of cholesteryl esters, was tested as follows. Male Sprague Dawley rats weighing 150-300 g, were fed rat chow ad libitum. The animals were fasted for twenty-four hours prior to being sacrificed by decapitation. The livers were perfused in situ with 50 ml of cold 0.25M sucrose, excised, and homogenized in three volumes of 0.1M phosphate buffer, pH 7.4, that contained 0.5 mM EDTA (ethylenediaminetetraacetic acid), 1.0 mM glutathione, 0.25M sucrose and […]. Microsomes were obtained by differential centrifugation; the supernatant from an initial spin at 15,000×g for 15 minutes was centrifuged at 105,000×g for 1 hour to pellet the microsomes. The microsomes were suspended in homogenization buffer, reisolated by centrifugation, and stored at -70° C. Microsomes were used within one month of preparation.
The control assay in a final volume of 200 μl consisted of 200 μg of microsomal protein, 75 μM ^14 C-oleoyl-CoA (10,000 dpm/nmol) in 0.1M phosphate, pH 7.4, that contained 1 mM glutathione. Compounds were added in 5 μl of DMSO (dimethyl sulfoxide) and additional controls were run with DMSO only. All components, except the oleoyl-CoA, were preincubated for 15 min. at 37° C. prior to the initiation of the reaction by the addition of oleoyl-CoA. The assay was terminated after 10 min by the addition of 4 ml of chloroform:methanol (2:1, v/v). 20,000 dpm of ^3 H-cholesteryl oleate and 10 μg of unlabeled cholesteryl oleate and oleic acid were added as an internal standard and carriers, respectively. After allowing 10 min. for lipid extraction, the samples were centrifuged at 1,000×g for 10 min. to separate the solvent layers. The chloroform layer containing the neutral lipids was spotted onto a Baker SI250-Pa silica gel TLC plate and the plate developed using a hexane: diethyl ether: acetic acid (170:30:1 v/v/v) mobile phase. The lipids were visualized by their interaction with iodine vapor and the cholesteryl ester spot was scraped into a scintillation vial and counted.

[2] = system: murine macrophage-like cell line J774.A1; assay: Inhibition of cholesterol esterification in mammalian cells (macrophage assay); format: cell-based; conditions: J774.A1 macrophages loaded with ac-LDL, 14C-oleic acid; read-out: Cholesterol Esterification IC50
Summary of the method: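 Murine J774.A1 macrophages at 37 °C received 34 μg acetylated human LDL in 10% FBS-DMEM from 24 h, compound in DMSO at 41 h, then a 0.1 mM 14C-oleic acid–BSA pulse from 43 to 45 h. Labelled cholesteryl ester was separated by TLC, counted and normalised to Lowry protein.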

[3] = rat hepatic microsomes, 75 μM 14C-oleoyl-CoA, pH 7.4, 37° C., read-out: In Vitro ACAT IC50

CCCCCCCN(CCCCCSc1nc(-c2ccc(C(F)(F)F)cc2)c(-c2ccc(C(F)(F)F)cc2)[nH]1)C(=O)Nc1ccc(F)cc1F [Example 258]
IC50 [1, 3]: 40000 nM | IC50 [2]: 25000 nM

CCCCCCCN(CCCCCSc1nc(-c2ccc(OC)cc2)c(-c2ccc(OC)cc2)[nH]1)C(=O)Nc1ccc(F)cc1F [Example 118, N-[5-[4,5-bis(4-methoxyphenyl)-1H-imidazol-2-ylthio]pentyl]-N'-(2,4-difluorophenyl)-N-heptylurea]
IC50 [1, 3]: 170 nM | IC50 [2]: 100 nM

CCCCCCCN(CCCCCSc1nc(-c2ccccc2)c(-c2ccccc2)[nH]1)C(=O)OCC [Example 404, Ethyl [5-(4,5-diphenyl-1H-imidazol-2-ylthio)pentyl]heptylcarbamate]
IC50 [1, 3]: 33 nM | IC50 [2]: 500 nM

CCCCCCCN(CCCCCSc1nc(-c2ccccc2)c(-c2ccccc2)[nH]1)C(=O)Nc1ccccc1 [Example 2, N-[5-(4,5-diphenyl-1H-imidazol-2-ylthio)pentyl]-N-heptyl-N'-phenylurea]
IC50 [1, 3]: 3 nM | IC50 [2]: 800 nM

CCCCCCCN(CCCCCSc1nc(-c2ccc(OC)cc2)c(-c2ccc(OC)cc2)[nH]1)C(=O)Cc1ccc(F)cc1F [Example 351, N-[5-[4,5-bis(4-methoxyphenyl)-1H-imidazol-2-ylthio]pentyl]-2,4-difluoro-N-heptylbenzeneacetamide]
IC50 [1, 3]: 250 nM | IC50 [2]: 40 nM

CCCCCCCN(CCCCCSc1nc(-c2ccc(OC)cc2)c(-c2ccc(OC)cc2)[nH]1)C(=O)OCC(C)C [Example 457]
IC50 [1, 3]: 834 nM | IC50 [2]: 100 nM

CCCCCCCN(CCCCCSc1nc(C(C)C)c(C(C)C)[nH]1)C(=O)Oc1ccccc1 [Example 411, phenyl N-[5-(4,5-bis(1-methylethyl)-1H-imidazol-2-ylthio]pentyl]-N-heptylcarbamat]
IC50 ([1]; In Vitro ACAT IC50, rat hepatic microsomes, 75 μM 14C-oleoyl-CoA, pH 7.4, 37° C.): 310 nM | IC50 [2]: 500 nM

CCCCCCCN(CCCCCSc1nc(-c2cccc(OC)c2)c(-c2cccc(OC)c2)[nH]1)C(=O)Nc1ccc(F)cc1F [Example 195, N-[5-[4,5-bis(3-methoxyphenyl)-1H-imidazol-2-ylthio]pentyl]-N'-(2,4-difluorophenyl)-N-heptylurea]
IC50 [1, 3]: 40 nM | IC50 [2]: 400 nM

CCCCCCCN(CCCCCSc1nc2c([nH]1)-c1ccccc1OCOc1ccccc1-2)C(=O)Nc1ccc(F)cc1F [Example 211, N-[5-(1H,9H-dibenz[4,5:8,9][1,3]dioxonino[6,7-d]imidazol-2-ylthio)-pentyl]-N'-(2,4-difluorophenyl)-N-heptylurea]
IC50 [1, 3]: 32 nM | IC50 [2]: 700 nM

CCCCCCCN(CCCCCSc1nc(C2CCCCC2)c(C2CCCCC2)[nH]1)C(=O)Nc1ccc(F)cc1F [Example 199, N-[5-(4,5-dicyclohexyl-1H-imidazol-2-ylthio)pentyl]-N'-(2,4-difluorophenyl)-N-heptylurea]
IC50 [1, 3]: 20 nM | IC50 [2]: 600 nM

CCCCCCCN(CCCCCSc1nc(-c2ccccc2)c(-c2ccccc2)[nH]1)C(=O)Nc1ccc(C#N)cc1 [Example 85, N'-(4-cyanophenyl)-N-[5-(4,5-diphenyl-1H-imidazol-2-ylthio)pentyl]-N-heptylurea]
IC50 ([1]; In Vitro ACAT IC50): 60 nM | IC50 [2]: 3100 nM

CCCCCCCN(CCCCCSc1nc(-c2ccc(OC)cc2)c(-c2ccc(OC)cc2)[nH]1)C(=O)CCC [Example 348, N-[5-[4,5-bis(4-methoxyphenyl)-1H-imidazol-2-ylthio]pentyl]-N-heptylbutanamide]
IC50 [1, 3]: 700 nM | IC50 [2]: 200 nM

CCCCCCCN(CCCCCSc1nc(-c2ccccc2)c(-c2ccccc2)[nH]1)C(=S)Nc1cccc(F)c1 [Example 300, N-[5-(4,5-diphenyl-1H-imidazol-2-ylthio)pentyl]-N'-(3-fluorophenyl)-N-heptylthiourea]
IC50 [1, 3]: 130 nM | IC50 [2]: 900 nM

CCCCCCCN(CCCCCSc1nc(C(C)C)c(C(C)C)[nH]1)C(=O)CC1CCCCC1 [Example 347, N-[5-[4,5-bis(1-methylethyl)-1H-imidazol-2-ylthio]pentyl]-N-heptylcyclohexaneacetamide]
IC50 [1, 3]: 30 nM | IC50 [2]: 300 nM
